# Measurements: patent US20240197749A1, “METHOD OF INHIBITING LIPOGENESIS WITH UBIQUITIN-SPECIFIC PEPTIDASE 24 INHIBITOR COMPOSITION” (NATIONAL CHENG KUNG UNIVERSITY, priority 2022, published 2024)
# Assays:
# [1] = molecular target: T1, USP24 (Homo sapiens, UniProt Q9UPU5); details: known; cited from earlier work
# [2] = test system: HFD mice; assay: magnetic resonance imaging (MRI) of level and distribution of fat in HFD mice; details: MRI in vivo signal and collected kidney organs
# Source text: The HFD mice with or without USP24-i-101 treatment according to the experimental flowchart of FIG. 12A were examined by magnetic resonance imaging (MRI) equipment to assess the level and distribution of fat inside them.
# [3] = molecular target: T1, USP24; assay: inhibition of USP24 activity; type: biochemical; details: in comparison to USP24-i1; not shown in the figures
# [4] = test system: 3T3-L1 cells; assay: differentiation of 3T3-L1 cells into adipocytes, Oil-Red-O staining; type: cell-based, mouse; details: 5 μM or 10 μM, MDIR induction, Oil-Red-O on days 8-10; dose-dependent; vs DMSO
# Experimental: (§1) Commercially available mouse fibroblast cell line 3T3-L1 was cultured in commercially available Dulbecco's Modified Eagle Medium (DMEM) containing 10% fetal bovine serum (FBS), 100 μg/mL streptomycin, and 100 U/ml penicillin G sodium salt. All cell cultures were maintained at 37° C. with 5% CO2.
# Please referred to FIG. 6A, which illustrated the experimental procedure for evaluating the effects of USP24 inhibitor on the induction of 3T3-L1 cells into adipocytes according to an embodiment of the present invention. When 3T3-L1 cells reached approximately 70% confluence, the MDIR induction medium containing USP24 inhibitor (5 μM or 10 μM) was added to the cells on day 0 and cultured for 2 days. Subsequently, on day 2, the induction medium was replaced with fresh medium containing USP24 inhibitor (5 μM or 10 μM) and insulin (10 μg/mL), and the cells were cultured for an additional 2 days. Next, the culture medium was changed the fresh medium containing USP24 inhibitor on day 4, and the cells were cultured for 4-6 more days, allowing 3T3-L1 cells to differentiate into adipocytes or adipocyte-like cells. And then, the cells were stained with Oil-Red-O (on days 8-10) to assess the influence of USP24 inhibitor on adipocyte formation, as shown in FIGS. 6B and 6C. […]
# [5] = test system: CREB; assay: CREB and its phosphorylation during 3T3-L1 differentiation; type: cell-based, mouse
# [6] = test system: HFD mice; assay: treatment of HFD mice from the initiation of the experiment (previous studies of the inventors); type: in vivo; details: HFD mice treated i.p. from the initiation of the experiment
# Source text: (§2) In the previous studies of the inventors, USP24-i-101 treated (i.p.) the HFD mice from the initiation of the experiment. […] In this Example, USP24-i-101 treated the mice after obesity, not from initiation. Mice were fed with HFD for two months and then treated with USP24-i-101 one month (two times per week, i.p.).
# [7] = test system: USP24-WT mice; assay: liver tissue section H&E staining after normal diet or high-fat diet and USP24 inhibitor; type: in vivo; details: USP24 inhibitor oral 2 months
# Source text: (§3) Animal-related experiments had been reviewed and approved by the Institutional Animal Care and Use Committee (IACUC) of National Cheng Kung University (NCKU). These genetically modified mice were generated at the National Laboratory Animal Center (NLAC) in Tainan, Taiwan. After breeding, 2 months-old wild-type mice and genetically modified mice were used to study lipogenesis progress. The cages provided adequate space, and the population density allowed the animals to move freely. The provided feed was sufficient for the normal growth and maintenance of regular body weight in both wild-type and genetically modified mice. Genetically modified mice had access to fresh, uncontaminated drinking water. Genetically modified mice were observed and cared for at least 2 to 3 times a week. All animal-related procedures were conducted in accordance with relevant guidelines and regulations.
# It was known that USP24 inhibitor (USP24-i1, NCI677397, Formula I-3-3) could block USP24 catalytic activity, delaying or reversing cancer drug resistance.
# [8] = test system: HFD-mice; assay: serum tests / safety assay by ELISA in ND and HFD mice; type: in vivo; details: serum of HFD mice; i.p. 10 mg/kg once a week for two months
# Experimental: As shown in FIGS. 10A to 10H, serum were collected from normal diet (ND) and high fat diet (HFD) mice with or without USP24-i-101 treatment to study the safety assay by ELISA assay.
# In this Example, wild-type mice were fed a normal diet (ND) or a high-fat diet (HFD), and they were injected intraperitoneally (i.p.) with 10 mg/kg of USP24-i once a week for two consecutive months. Subsequently, mouse sera were collected, and serum-related indices were examined to assess the impact of USP24-i on lipogenesis and liver function, as depicted in FIGS. 10A to 10H.
# There was no statistically significant difference of the time of latency to fall off the rotarod between the USP 24 KO mice and the wild-type USP 24 mice, as shown in FIG. 10B. Mouse sera were collected from normal diet (ND) and high fat diet (HFD) mice with or without USP24-i treatment to perform the safety evaluation by ELISA assay. […] Therefore, USP24 inhibitor could inhibit the lipogenesis, thereby improving liver activity.
# [9] = test system: USP24-WT HFD mice; assay: Oil-Red-O staining assay of liver tissue sections (hepatic lipid accumulation); type: in vivo; details: i.p. 10 mg/kg once a week for two consecutive months
# Source text: as §3
# In this embodiment, the analysis of hepatic lipid accumulation and distribution were performed using the Oil-Red-O staining assay. […] The USP24 inhibitor was administered by intraperitoneal injection (i.p.) at a dose of 10 mg/kg once a week for two consecutive months. Statistical analysis was conducted using a t-test, where * indicates p<0.01, and ** indicates p<0.005 (FIG. 5B).
# [10] = test system: HFD mice; assay: treatment of HFD mice after obesity: body weight, visceral fat, fatty liver, eWAT and iWAT; type: in vivo
# Source text: as §2
# In addition, USP24-i-101 could inhibit eWAT and iWAT of mice. The subcutaneous fat and visceral fat (around organs such as kidney and reproductive organs) were collected to analyze the size of the epididymal WAT [eWAT, as shown in FIG. 11D (a), upper panel of FIG. 11D(c) and upper panel of FIG. 11D(d)] and inguial WAT [iWAT, as shown in FIG. 11D(b), lower panel of FIG. 11D(c) and lower panel of FIG. 11D(d)].
# [11] = test system: differentiated 3T3-L1 cells; assay: Western blotting of proteins associated with adipocyte formation in 3T3-L1 cells; type: cell-based, mouse; details: Western blot, vs DMSO
# Experimental: as §1
# Please referred to FIG. 6A, which illustrated the experimental procedure for evaluating the effects of USP24 inhibitor on the induction of 3T3-L1 cells into adipocytes according to an embodiment of the present invention. When 3T3-L1 cells reached approximately 70% confluence, the MDIR induction medium containing USP24 inhibitor (5 μM or 10 μM) was added to the cells on day 0 and cultured for 2 days. Subsequently, on day 2, the induction medium was replaced with fresh medium containing USP24 inhibitor (5 μM or 10 μM) and insulin (10 μg/mL), and the cells were cultured for an additional 2 days. Next, the culture medium was changed the fresh medium containing USP24 inhibitor on day 4, and the cells were cultured for 4-6 more days, allowing 3T3-L1 cells to differentiate into adipocytes or adipocyte-like cells. And then, the cells were stained with Oil-Red-O (on days 8-10) to assess the influence of USP24 inhibitor on adipocyte formation, as shown in FIGS. 6B and 6C.
# The MDIR induction medium included 0.5 mM 3-isobutyl-1-methylxanthine (IBMX), 1 μM dexamethasone (D), […] insulin (I), and 1 μM rosiglitazone (R) in Dulbecco's Modified Eagle Medium (DMEM). The components M, D, R, and USP24 inhibitor were dissolved in dimethyl sulfoxide (DMSO) and then added to DMEM. The insulin culture medium contained 10 μg/mL insulin in DMEM, and the fresh medium included 10% fetal bovine serum (FBS) in DMEM.
# It was known that PPAR-γ and PLIN1 were important markers for adipocytes. In this embodiment, commercially available antibodies were used to perform Western blotting on 3T3-L1 cells to evaluate the expression levels of proteins associated with adipocyte formation in response to USP24-i-a treatment, as shown in FIGS. 7A to 7G.
# [12] = HFD two months, then treatment one month, two times per week, i.p.
# T1 sequence (Q9UPU5 whole entry, species assumed): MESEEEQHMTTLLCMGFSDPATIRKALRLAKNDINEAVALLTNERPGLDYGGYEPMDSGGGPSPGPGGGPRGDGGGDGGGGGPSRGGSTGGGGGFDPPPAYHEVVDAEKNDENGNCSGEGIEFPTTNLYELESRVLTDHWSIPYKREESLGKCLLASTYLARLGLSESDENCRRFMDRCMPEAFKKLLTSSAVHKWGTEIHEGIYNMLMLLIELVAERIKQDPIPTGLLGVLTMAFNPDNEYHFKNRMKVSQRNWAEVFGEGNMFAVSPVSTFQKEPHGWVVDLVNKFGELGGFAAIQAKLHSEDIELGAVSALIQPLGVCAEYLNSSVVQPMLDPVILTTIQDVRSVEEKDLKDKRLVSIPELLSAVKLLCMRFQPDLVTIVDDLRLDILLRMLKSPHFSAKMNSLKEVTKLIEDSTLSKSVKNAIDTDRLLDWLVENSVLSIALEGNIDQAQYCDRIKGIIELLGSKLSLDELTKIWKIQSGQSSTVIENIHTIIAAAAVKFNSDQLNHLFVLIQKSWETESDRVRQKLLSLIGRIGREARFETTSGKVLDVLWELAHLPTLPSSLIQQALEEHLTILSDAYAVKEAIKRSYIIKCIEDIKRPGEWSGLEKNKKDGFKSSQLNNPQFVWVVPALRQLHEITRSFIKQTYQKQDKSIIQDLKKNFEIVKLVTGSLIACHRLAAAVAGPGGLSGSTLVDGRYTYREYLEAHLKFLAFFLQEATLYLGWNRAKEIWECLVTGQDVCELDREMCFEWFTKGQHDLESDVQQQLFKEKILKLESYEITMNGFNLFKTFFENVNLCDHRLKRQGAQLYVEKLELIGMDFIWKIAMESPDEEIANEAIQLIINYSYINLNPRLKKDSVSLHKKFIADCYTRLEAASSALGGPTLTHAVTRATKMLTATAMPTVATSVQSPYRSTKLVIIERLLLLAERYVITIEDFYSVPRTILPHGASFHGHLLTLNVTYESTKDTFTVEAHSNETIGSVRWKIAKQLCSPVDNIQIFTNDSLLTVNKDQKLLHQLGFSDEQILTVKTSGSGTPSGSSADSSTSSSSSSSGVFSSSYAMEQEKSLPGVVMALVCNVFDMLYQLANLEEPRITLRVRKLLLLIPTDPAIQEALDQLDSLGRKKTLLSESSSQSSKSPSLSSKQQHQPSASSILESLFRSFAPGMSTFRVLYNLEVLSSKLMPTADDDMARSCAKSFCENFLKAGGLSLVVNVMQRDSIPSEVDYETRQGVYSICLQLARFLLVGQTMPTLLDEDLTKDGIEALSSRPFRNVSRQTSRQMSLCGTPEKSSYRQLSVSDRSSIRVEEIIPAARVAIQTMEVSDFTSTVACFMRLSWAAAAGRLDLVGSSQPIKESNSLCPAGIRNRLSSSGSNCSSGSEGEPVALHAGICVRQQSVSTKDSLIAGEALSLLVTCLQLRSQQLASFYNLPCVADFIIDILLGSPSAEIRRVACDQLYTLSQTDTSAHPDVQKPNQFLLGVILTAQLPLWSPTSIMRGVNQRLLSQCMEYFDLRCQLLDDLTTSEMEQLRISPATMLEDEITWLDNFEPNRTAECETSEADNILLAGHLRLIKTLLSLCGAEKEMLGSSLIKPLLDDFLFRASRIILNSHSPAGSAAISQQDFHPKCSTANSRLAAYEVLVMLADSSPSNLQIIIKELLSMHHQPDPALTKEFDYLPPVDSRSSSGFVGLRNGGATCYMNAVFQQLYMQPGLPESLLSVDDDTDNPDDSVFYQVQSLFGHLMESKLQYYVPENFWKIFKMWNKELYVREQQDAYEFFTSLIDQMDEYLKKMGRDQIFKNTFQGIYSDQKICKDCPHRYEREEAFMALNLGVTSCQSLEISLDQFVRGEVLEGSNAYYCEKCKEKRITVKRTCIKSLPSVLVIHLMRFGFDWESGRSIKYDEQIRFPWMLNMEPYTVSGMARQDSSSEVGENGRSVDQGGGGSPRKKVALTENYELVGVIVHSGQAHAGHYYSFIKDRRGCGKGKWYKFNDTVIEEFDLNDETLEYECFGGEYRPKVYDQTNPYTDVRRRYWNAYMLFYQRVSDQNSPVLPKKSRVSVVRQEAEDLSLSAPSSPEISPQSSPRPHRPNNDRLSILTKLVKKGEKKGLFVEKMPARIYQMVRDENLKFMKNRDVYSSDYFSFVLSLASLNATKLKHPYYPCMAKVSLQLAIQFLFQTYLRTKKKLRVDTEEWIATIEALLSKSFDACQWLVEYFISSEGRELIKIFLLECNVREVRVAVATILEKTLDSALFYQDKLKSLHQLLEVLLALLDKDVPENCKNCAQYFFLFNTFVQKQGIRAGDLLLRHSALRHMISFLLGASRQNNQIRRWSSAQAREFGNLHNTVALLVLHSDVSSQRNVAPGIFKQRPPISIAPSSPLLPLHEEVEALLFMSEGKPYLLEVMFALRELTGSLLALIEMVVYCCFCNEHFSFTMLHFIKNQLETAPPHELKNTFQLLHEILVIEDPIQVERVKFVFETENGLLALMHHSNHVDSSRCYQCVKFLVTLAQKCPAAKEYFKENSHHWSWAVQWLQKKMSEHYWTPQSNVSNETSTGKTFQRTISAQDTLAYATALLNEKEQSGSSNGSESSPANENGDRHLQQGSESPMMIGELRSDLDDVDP
smiles,measurement,setting,value
CN1CCN(CCCCN2c3ccccc3Sc3ccc(C(=O)c4ccccc4)cc32)CC1 [USP24-i1],USP24 catalytic activity,[1],could block
CN1CCN(CCN2c3ccccc3Sc3ccc(C(=O)c4ccccc4)cc32)CC1 [USP24-i-a],signal of fat around subcutaneous and organs,[2],significantly inhibited
same,inhibition of USP24 activity,[3],superior inhibition
same,lipid droplet accumulation,[4],significant reversal
same,CREB,[5],inhibited
same,CREB phosphorylation,[5],inhibited
same,body weight,[6],could be inhibited
same,fatty liver,[6],could be inhibited
same,lipid droplets in liver (H&E),"[7]; USP24-WT HFD mice, 2 months high-fat diet",few to no lipid droplets
same,lipid droplets in liver (H&E),"[7]; USP24-WT ND mice, 2 months normal diet",few to no lipid droplets
same,GOT (glutamic oxaloacetic transaminase),[8],significantly inhibited
same,GPT (glutamic pyruvic transaminase),[8],significantly inhibited
same,albumin (ALB),[8],did not significantly change
same,total cholesterol,[8],significantly inhibited
same,total protein (TP),[8],did not significantly change
same,triglyceride (TG),[8],did not significantly change
same,signals of Oil-Red-O staining in the liver,[9],significantly reduced or nearly disappeared
same,size of epididymal WAT (eWAT),[10]; HFD mice,could be inhibited
same,size of inguial WAT (iWAT),[10]; HFD mice,could be inhibited
same,body weight,[10]; [12],significantly decreased
same,fatty liver,[10]; [12],really decreased
same,visceral fat,[10]; [12],really decreased
same,expression level of C/EBPβ,[11],also reduced
same,expression level of SREBP1,[11],also reduced
same,expression level of PLIN1 (Perilipin 1),[11]; dose-dependent,reduced
same,expression level of PPAR-γ,[11]; dose-dependent,reduced
